Data taken from patent publication US20090304766A1, “LOCALIZED DELIVERY OF DRUG COMBINATIONS” (priority 2005, published 2009).

Test: in vitro combination dose-effect analysis (cytotoxicity, Chou-Talalay combination index)
Format: cell-based
Conditions: FIG. 2D; single agent compared with combination
Experimental: By way of illustration, individual agents and various combinations thereof are tested for their biological effect on cell culture or a cell-free system, for example causing cell death or inhibiting cell growth, at various concentration levels. The concentration levels of the preset ratios are plotted against the percentage cell survival to obtain a correlation which can be manipulated by known and established mathematical techniques to calculate a “combination index” (CI). The mathematics are such that a CI of 1 (i.e., 0.9-1.1) describes an additive effect of the drugs; a CI>1 (i.e., >1.1) represents an antagonist effect; and a CI of <1 (i.e., <0.9) represents a synergistic effect.
As shown, agents A and B are tested individually and together at two different ratios for their ability to cause cell death or cell stasis as assessed by the MTT assay described below. Initially, correlations between the concentration of drugs A, B, and the two different combination ratios (Y:Z and X:Y) are plotted against cytotoxicity, calculated as a percentage based on the survival of untreated control cells. […] Once this correlation has been established, the cell survival or fraction affected (fa) can be used as a surrogate for concentration in calculating the CI. […]

SMILES | concentration required to achieve a 90% cell kill on its own versus when combined at a non-antagonistic ratio
N.N.O=C([O-])C1(C(=O)[O-])CCC1.[Pt+2] [carboplatin] | significantly higher
CCc1c2c(nc3ccc(OC(=O)N4CCC(N5CCCCC5)CC4)cc13)-c1cc3c(c(=O)n1C2)COC(=O)[C@]3(O)CC [irinotecan] | significantly higher
